Legend:
[1] = cited from earlier work
BALB/C mice [2] = experiment: Protection against NMDA toxicity; format: in vivo; conditions: for % alive / No.alive total / Onset time of clinical signs: NMDA 125 mg/kg s.c., 120 min post HU-211
Procedure: (§1) BALB/C mice (20 g) were subcutaneously injected with picrotoxin, strychnine and NMDA in doses of about LD₉₀ and subsequent clinical observations for the occurrence of convulsions and death were carried out within 20 min. The number of mice used and the mortality were assessed at the highest doses administered.

NMDA receptor [3] = experiment: Equilibrium binding of [³H]TCP to well-washed rat brain cortical membranes
NMDA receptor [4] = experiment: Kinetics of basal and glutamate/glycine-induced [³H]TCP binding to rat brain cortical membranes
Procedure: Kinetic experiments were then performed in order to determine whether HU-211 exerts its behavioral effects by acting directly at the glutamate- or the glycine-binding sites of the NMDA receptor.
Like the competitive NMDA antagonist aminophosphovalerate (AP-5), HU-211 reduces the glutamate/glycine potentiation of [³H]TCP binding.
HU-211 reduces the rate of binding of [³H]TCP to the NMDA-receptor channel and the rate of dissociation of [³H]TCP-receptor complexes. • A) Time course of basal (without added agonist) and induced with 1 »M L-glutamate and 1 »M glycine) [³H]TCP binding to the NMDA receptor of rat brain cortical membranes. Data represent the basal binding determined in the absence (●) and in the presence (▲) of 10 »M HU-211, and the induced binding determined in the absence (o) and in the presence (△) of 10 »M HU-211. Binding of [³H]TCP to well-washed control membranes was determined under the following conditions: membranes (80 »g protein) were incubated at 25°C in 200 »l HEPES buffer, pH 7.4, containing 5 nM [³H]TCP (total binding) or 5 nM [³H]TCP and 100 »M PCP (phencyclidine) (nonspecific binding), and the reactions were terminated at the indicated times by rapid filtration over polyethyleneimine-treated GF/C filters. The filters were counted in scintillation liquid (Hydroluma, Lumac Inc., Netherlands). HU-211 was prepared as described elsewhere [Mechoulam, R., et al., Tetrahedron:Asymmetry, 1:315-319 (1990)]. Means values (triplicates) of the specific binding of [³H]TCP (total minus non-specific binding) are plotted as a function of the incubation time. The data shown are from one of three experiments that gave similar results. • (B-C) First-order plots of the basal (B) and the induced (C) dissociation of [³H]TCP-receptor complexes. Data represent the basal (without added agonist) dissociation rates determined in the absence (●) and in the presence (▲) of 10 »M HU-211; the induced (with 1 »M L-glutamate and 1 »M glycine) dissociation rates were determined in the absence (o) and in the presence (△) of 10 »M HU-211. Samples were preincubated as described for Figure 2A, at 25°C with 18 nM [³H]TCP for 2 h. Basal dissociation reactions were initiated by the addition of 100 »M unlabeled PCP with or without 10 »M HU-211. For the induced dissociation reactions 1 »M glutamate and 1 »M glycine were also added. Reactions were terminated either immediately (zero time) or at the indicated times. Beq, amount of [³H]TCP bound at zero time. Bt, amount of [³H]TCP boud at time t. […]
Data represent the concentration-dependent decrease of [³H]TCP binding by HU-211 (o) and by its isomer HU-210 (△). Binding of [³H]TCP (5 nM) was determined as described for Figure 2A, either in the absence (basal) or in the presence (induced) of 1 »M glutamate (A) or of 1 »M glycine (B).
Reactions were terminated after 10 min. Data are expressed as induced over basal binding as a function of isomer concentrations. […]
Non-competitive inhibition of glutamate- or glycine-induced [³H]TCP binding by HU-211. Induced [³H]TCP binding, corresponding to the ratio of binding in the presence of glutamate or glycine to binding in their absence, was determined with 5 nM [³H]TCP at 25°C for 10 min. Binding of (³H)TCP to well-washed rat cortical membranes was determined in triplicate, as described previously [Kloog, Y., et al., Biochemistry, 27: 843-848 (1988)], in the absence (basal) and presence of various concentrations of L-glutamate (a) or glycine (b) with and without HU-211, as indicated. […]

BALB/C mice [5] = experiment: Protection against picrotoxin toxicity; format: in vivo; conditions: Picrotoxin 4 mg/kg s.c.; vehicle Emulsion; HU-211 10 mg/kg; 120 min post HU-211
Procedure: as §1

C-57 Black mice = experiment: Inhibition of tremorogenic, convulsive and lethal effects of NMDA in C-57 Black mice; format: in vivo; conditions: for blockade of NMDA-induced tremor, seizure and lethality: at about 2.5 mg/kg body weight, summary statement, mouse strain not given; for mice in which the tremorogenic, convulsive and lethal effects were prevented: dose 5 mk/kg, NMDA 100 mg/kg
Procedure: (§2) Sabra mice (an Israeli heterogenous strain) were pretreated with either vehicle alone (control) or HU-211 (1.25 or 2.50 mg/kg; s.c.), followed by NMDA (200 mg/kg; s.c.). […] Similar experiments were performed using C-57 Black mice, in which the dose of NMDA was decreased (100 mg/kg; s.c.). Counteraction by HU-211 of the NMDA-induced effects was more pronounced in the latter strain (which is more sensitive than Sabra mice to the effects of NMDA). In the control series of both strains, which received NMDA without HU-211, all animals died in less than 10 min. following seizure onset.
The experiments described in Table 2 were repeated with C-57 Black mice, HU-211 replaced by the compound of formula (II) (compound Vb, U.S. Patent No. 4,179,517) and the compound of formula (IIa)(compound XIb, ibid.). NMDA (100 mg/kg) was administered to the mice.
In addition, the experiments were repeated with the novel compound HU-247.

Sabra mice [6] = experiment: Induction of stereotypy (stereotypy gradient of Feigenbaum et al.); format: in vivo; conditions: for Stereotypy Gradient: HU-211 2.5 mg/kg s.c., mean ±SEM; for induction of stereotypy, locomotor hyperactivity and tachycardia: at about 25 mg/kg body weight, summary statement covering stereotypy, locomotor and heart rate tests, mice
Excerpt: (§3) As will be shown hereafter, the pharmacological profile of HU-211, and other compounds constituting the active ingredients of the present compositions, includes the induction of stereotypy, locomotor hyper-activity and tachycardia in mice (Table 1). […] This possibility was explored by examining the activity of the compounds in protecting against the tremorogenic, convulsive and lethal effects of NMDA and NMDA agonists in mice. Such effects are counteracted by virtually all NMDA antagonists.

Sabra mice [7] = experiment: Inhibition of tremorogenic, convulsive and lethal effects of NMDA in Sabra mice; format: in vivo
Procedure: as §2

Sabra mice [8] = experiment: Locomotor activity (body displacement over 7-cm squares); format: in vivo; conditions: HU-211 2.5 mg/kg s.c., mean ±SEM
Excerpt: as §3

Sabra mice [9] = experiment: Induction of tachycardia (heart rate); format: in vivo; conditions: HU-211 2.5 mg/kg s.c., mean ±SEM
Excerpt: as §3

BALB/C mice [10] = experiment: Protection against strychnine toxicity; format: in vivo; conditions: Strychnine 1 mg/kg s.c.; vehicle Emulphor; HU-211 10 mg/kg; 75 min post HU-211
Procedure: as §1

[11] = vehicle Emulphor, HU-211 5 mg/kg
[12] = vehicle Emulsion, HU-211 5 mg/kg
[13] = vehicle Emulsion, HU-211 10 mg/kg
[14] = C-57 Black mice, HU-211 1.25 mg/kg s.c. 75 min prior to NMDA 100 mg/kg s.c.
[15] = C-57 Black mice, HU-211 2.50 mg/kg s.c. 75 min prior to NMDA 100 mg/kg s.c.
[16] = Sabra mice, HU-211 2.5 mg/kg s.c. 75 min prior to NMDA 200 mg/kg s.c.

CCCCCCC(C)(C)c1cc(O)c2c(c1)OC(C)(C)[C@@H]1CC=C(CO)C[C@@H]21 [HU-210, 7-hydroxy-Δ⁶-tetrahydrocannabionol 1,1-dimethylheptyl homolog, reference compound]
cannabimimetic activity relative to Δ-1-tetrahydrocannabionol ([1]; more active than Δ-1-tetrahydrocannabionol): ~100 times

CCCCCCC(C)(C)c1cc(O)c2c(c1)OC(C)(C)[C@H]1CC=C(CO)C[C@H]21 [HU-211, (+)-(3S,4S)-1,1-dimethylheptyl homolog of 7-hydroxy-Δ⁶-tetrahydrocannabinol]
protection against NMDA toxicity, Emulsion compared with Emulphor preparation (BALB/C mice [2]; HU-211 carried in the Emulsion versus the Emulphor preparation): better protection
% alive (BALB/C mice [2]; [11]): 20%
No.alive total (BALB/C mice [2]; [11]): 2/10
Onset time of clinical signs (BALB/C mice [2]; [11]): 19 min
% alive (BALB/C mice [2]; [12]): 60%
No.alive total (BALB/C mice [2]; [12]): 4/7
Onset time of clinical signs (BALB/C mice [2]; [12]): 7 min
% alive (BALB/C mice [2]; [13]): 80%
No.alive total (BALB/C mice [2]; [13]): 8/10
Onset time of clinical signs (BALB/C mice [2]; [13]): 10 min
equilibrium binding of 5 nM [³H]TCP (NMDA receptor [3]; 100 »M HU-211): not inhibited
maximum binding capacity of [3H]TCP (NMDA receptor [3]; in the presence of HU-211 10 »M, 2-100 nM [³H]TCP, 1 »M glutamate and 1 »M glycine (control 3.4)): 3.5 pmol/mg protein
dissociation rate of [³H]TCP from the NMDA receptor (NMDA receptor [4]; 10 »M HU-211, both in absence and presence of 1 »M glutamate and 1 »M glycine, much more strongly in their presence): decreased the dissociation rate
inhibition of the induced [³H]TCP binding compared with the (-)enantiomer HU-210 (NMDA receptor [4]; Figure 3, stereospecificity): far more potent inhibitor
efficacy of glutamate- or glycine-induced [³H]TCP binding (NMDA receptor [4]; HU-211 10 and 5 »M, apparent affinities of glutamate and glycine not altered): reduced the efficacy
rate of association of [³H]TCP binding to the NMDA receptor (NMDA receptor [4]; basal (no added agonist), 10 »M HU-211): only a small decrease
association rate of [³H]TCP binding (NMDA receptor [4]; induced: 1 »M glutamate and 1 »M glycine, 10 »M HU-211): marked decrease
% alive (BALB/C mice [5]): 50%
No.alive total (BALB/C mice [5]): 4/8
Onset time of clinical signs (BALB/C mice [5]): 54 min
mice that exhibited no tremors or seizures and stayed alive for more than four days following NMDA administration (C-57 Black mice; C-57 Black mice pretreated with HU-211 (2.50 mg/kg s.c.), NMDA 100 mg/kg s.c.): six of the seven
Time until death (C-57 Black mice; [14]): 18.6 ± 4.2 min
Time until first seizure (C-57 Black mice; [14]): 13.2 ± 2.6 min
Time until first tremor (C-57 Black mice; [14]): 12.0 ± 2.6 min
Time until death (C-57 Black mice; [15]): >5800 min
Time until first seizure (C-57 Black mice; [15]): 5800 min
Time until first tremor (C-57 Black mice; [15]): >5800 min
persistence of the anti-NMDA effects (C-57 Black mice; C-57 Black mice, repeated NMDA 100 mg/kg one day later in the six surviving mice, preliminary results): more than 24 h
blockade of NMDA-induced tremor, seizure and lethality (C-57 Black mice): potent blockers
Stereotypy Gradient (Sabra mice [6]; time 0 min): 0.4±0.1
Stereotypy Gradient (Sabra mice [6]; time 15 min): 1.3±0.2
Stereotypy Gradient (Sabra mice [6]; time 30 min): 2.2±0.1
Stereotypy Gradient (Sabra mice [6]; time 45 min): 0.7±0.2
Stereotypy Gradient (Sabra mice [6]; time 60 min): 0.6±0.3
induction of stereotypy, locomotor hyperactivity and tachycardia (Sabra mice [6]): induce stereotypy, locomotor hyperactivity and tachycardia
mice that exhibited no tremors or seizures and stayed alive for more than four days following NMDA administration (Sabra mice [7]; Sabra mice pretreated with HU-211 (2.5 mg/kg s.c.), NMDA 200 mg/kg s.c.): two of the five
Time until death (Sabra mice [7]; [16]): 20.2 ± 7.0 min
Time until first seizure (Sabra mice [7]; [16]): 18.0 ± 7.0 min
Time until first tremor (Sabra mice [7]; [16]): 8.2 ± 1.3 min
cannabimimetic activity ([1]; even at doses several thousand times higher than ED₅₀ of HU-210): inactive
Locomotor Activity (Sabra mice [8]; time 0 min, score = squares crossed): 32.0±6.0
Locomotor Activity (Sabra mice [8]; time 15 min): 45.0±2.0
Locomotor Activity (Sabra mice [8]; time 30 min): 37.0±4.04
Locomotor Activity (Sabra mice [8]; time 45 min): 28.0±13.0
Locomotor Activity (Sabra mice [8]; time 60 min): 17.0±7
Heart Rate (Sabra mice [9]; time 0 min): 169.2±2.5 per min
Heart Rate (Sabra mice [9]; time 75 min): 186.8±2.5 per min
% alive (BALB/C mice [10]): 80%
No.alive total (BALB/C mice [10]): 8/10

CCCCCCC(C)(C)c1cc(OC(C)=O)c2c(c1)OC(C)(C)[C@H]1CC=C(CO)C[C@H]21 [HU-247]
mice in which the tremorogenic, convulsive and lethal effects of NMDA were fully prevented (C-57 Black mice; C-57 Black mice, dose 2.5 mg/kg, same conditions as Table 2): 6 out of 7

CCCCCCC(C)(C)c1cc(O)c2c(c1)OC(C)(C)[C@H]1CC=C(C)C[C@H]21 [II]
mice in which the tremorogenic, convulsive and lethal effects were prevented (C-57 Black mice; C-57 Black mice): 4 out of 6
blockade of NMDA-induced tremor, seizure and lethality (C-57 Black mice): potent blockers
induction of stereotypy, locomotor hyperactivity and tachycardia (Sabra mice [6]): induce stereotypy, locomotor hyperactivity and tachycardia

CCCCCCC(C)(C)c1cc(O)c2c(c1)OC(C)(C)[C@H]1CCC(C)=C[C@H]21 [IIa]
mice in which the tremorogenic, convulsive and lethal effects were prevented (C-57 Black mice; C-57 Black mice): 4 out of 6
blockade of NMDA-induced tremor, seizure and lethality (C-57 Black mice): potent blockers
induction of stereotypy, locomotor hyperactivity and tachycardia (Sabra mice [6]): induce stereotypy, locomotor hyperactivity and tachycardia

— patent EP0427518B1, “NMDA-Blocking compounds, pharmaceutical compositions, their preparation and use” (priority 1989, dated 1991)
